Results on two compounds are retold here after patent publication US8153624B2, “Compounds and methods for modulating FXR” (Eli Lilly and Company, priority 2007, dated 2012).

pEC50: −log10 of the molar value.

In one test the test system is LDLR−/− mice. In words: LDLR−/− Serum Lipid Modulation. The format is in vivo. Conditions: male LDLR−/− mice on western diet, 10 mg/kg once daily oral gavage, seven days. The method, then: LDLR−/− Serum Lipid Modulation
Acclimate animals for two weeks prior to study initiation. Maintain mice on a 12:12 hour light-dark cycle at 21° C. Provide deionized water ad libitum and maintain for two weeks on ‘western diet’ TD 88137 Diet (42% fat, 0.15% cholesterol, Harlan Teklad, Madison, Wis., USA) ad libitum. Optimize groups of five ten-week-old male LDLR−/− mice based on serum triglyceride and cholesterol levels. […] Separate lipoprotein fractions by FPLC, and quantify cholesterol with an in-line detection system. […] The colored product produced in the presence of cholesterol is monitored in the flow stream at 505 nm, and the analog voltage from the monitor is converted to a digital signal for collection and analysis. The change in voltage corresponding to change in cholesterol concentration is plotted vs. time, and the area under the curve corresponding to the elution of VLDL-C and HDL-C is calculated using Turbo Chrome® version 4.12F12 software (PerkinElmer Corporation). […]

Test [1] addresses T1, human FXR ligand-binding domain (Homo sapiens, UniProt Q96RI1).
T1 construct: purchased Invitrogen Corporation
T1 sequence (Q96RI1 242-472 isoform Q96RI1-2 limits assumed): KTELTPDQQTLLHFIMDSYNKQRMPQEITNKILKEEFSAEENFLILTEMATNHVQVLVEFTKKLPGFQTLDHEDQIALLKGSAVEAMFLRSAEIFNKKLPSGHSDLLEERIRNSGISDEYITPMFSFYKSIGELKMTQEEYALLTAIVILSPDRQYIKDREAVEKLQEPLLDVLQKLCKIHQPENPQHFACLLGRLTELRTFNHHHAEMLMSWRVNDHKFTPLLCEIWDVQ
T1 sequence (Q15788 600-774 partner limits assumed): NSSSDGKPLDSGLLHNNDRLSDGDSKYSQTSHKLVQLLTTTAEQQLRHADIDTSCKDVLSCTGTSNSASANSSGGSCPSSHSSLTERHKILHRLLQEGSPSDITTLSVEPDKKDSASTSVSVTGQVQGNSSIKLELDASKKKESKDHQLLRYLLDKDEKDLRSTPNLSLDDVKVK
In words: FXR-SRC-1 Cofactor Recruitment Assay (Alpha Screen). As to conditions: FXR-SRC-1 interaction. The format is biochemical. The method, then: FXR-SRC-1 Cofactor Recruitment Assay
Compounds are evaluated by an FXR-SRC-1 Cofactor Recruitment assay using the Alpha (Amplified Luminescent Proximity Homogeneous Assay) Screen technology according to the manufacturer instructions (Perkin Elmer Corporation, Norwalk, Conn., USA) at various concentrations. Mix purified 6-HIS-tagged human FXR ligand-binding domain (amino acids 242-472), purified GST-tagged human SRC-1 nuclear receptor-interacting domain (amino acids 220-394), Nickel Chelate donor beads (Perkin Elmer Corporation) and Anti-GST antibody acceptor beads (Perkin Elmer Corporation) together and aliquot 12 μL per well into 384 well plates. Add compounds in 3 μL per well for a total assay volume of 15 μL and incubate at room temperature in the dark for 4 hours. After incubation, compounds that bind FXR and induce the interaction between the FXR and SRC-1 (available from Invitrogen Corporation Carlsbad, Calif., USA) would bring the two bead types into proximity generating luminescence that is quantified. Calculate EC50 values. Exemplified compounds of the invention are found to be effective in the SRC-1 FXR interaction assay with EC50s of about 38-5200 nM.

The target in a further test is T2, Human FXR (Homo sapiens, UniProt Q96RI1).
T2 construct: expressed in transfected cells
T2 sequence (Q96RI1 1-486): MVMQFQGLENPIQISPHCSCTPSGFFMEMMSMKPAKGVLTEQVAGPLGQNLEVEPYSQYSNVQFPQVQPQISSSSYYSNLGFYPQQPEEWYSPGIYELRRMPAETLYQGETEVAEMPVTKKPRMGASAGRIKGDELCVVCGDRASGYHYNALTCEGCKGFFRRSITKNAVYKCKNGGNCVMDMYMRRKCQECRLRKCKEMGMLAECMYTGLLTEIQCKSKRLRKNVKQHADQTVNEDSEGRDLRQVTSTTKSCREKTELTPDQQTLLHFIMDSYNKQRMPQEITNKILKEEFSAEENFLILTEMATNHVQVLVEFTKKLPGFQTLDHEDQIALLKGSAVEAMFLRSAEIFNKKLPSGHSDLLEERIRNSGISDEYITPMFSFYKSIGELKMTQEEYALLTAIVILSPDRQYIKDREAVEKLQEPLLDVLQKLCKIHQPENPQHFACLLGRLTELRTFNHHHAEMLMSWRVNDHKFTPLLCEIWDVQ
The test can be described thus: Human FXR/FXR-Response Element Luciferase Reporter Cotransfection Assay. The format is cell-based. The method, then:
Human FXR/FXR-Response Element Luciferase Reporter Cotransfection Assay
Compounds of the present invention are tested using the Human FXR/FXR-Response Element Luciferase Reporter Cotransfection Assay. The assay is performed essentially as described in J. Biological Chem. 2006, 281 (52), 39831-39838, except that 10 μg total DNA per million cells is used. One of skill in the art is able to perform this assay without undue experimentation.
Background: Reporter assays use an easily measured gene product as a stand-in for the process of interest.

For the compound `Cc1cc(N2CCC(OCc3c(-c4c(Cl)cccc4Cl)noc3C3CC3)CC2)ccc1C(=O)O` [Example 9, 4-{4-[5-Cyclopropyl-3-(2,6-dichloro-phenyl)-isoxazol-4-ylmethoxy]-piperidin-1-yl}-2-methyl-benzoic acid], in the test on LDLR−/− mice, the lowers total cholesterol result is reported as “about 76%” and the lowers triglycerides entry is on record as “about 75%”.
One may read the pEC50 as the EC50 on a negative log10 scale, so that one unit is a factor of ten. Low values mean a large EC50, high ones a small EC50. `O=C(O)c1ccc(N2CCC(OCc3c(-c4c(Cl)cccc4Cl)noc3C3CC3)CC2)cc1` [Example 7, 4-{4-[5-Cyclopropyl-3-(2,6-dichloro-phenyl)-isoxazol-4-ylmethoxy]-piperidin-1-yl}-benzoic acid]: the values for the pEC50 (in test [1]; at Human FXR) were about 6.49 and 6.66, respectively.
